System: Mus musculus
Assay: Toxicity in ip dosed CD1 mouse
Assay type: organism-based
Details: in vivo

Question: Which Activity does the source give for `C=C1CCC2OC(CC3=CC4/C(C)=C/CC(C)CC(/C=C/C(O)C5CC(O)C(O)C(CCC(O)/C=C/C(C)=C/CCC6=NCCC(C3)C64C)O5)OC(=O)CC3OC(C(O)CC1C)C(O)C3OS(=O)(=O)O)C(O)CC2O` (stereo unspecified) [PROROCENTROLIDE B] here?
Answer: The Activity was “Toxic”.

Source: ChEMBL document CHEMBL1158293, “Isolation and structure of prorocentrolide B, a fast-acting toxin from Prorocentrum maculosum” (J Nat Prod, 1996)
